These results are taken from patent EP2776398B1, “SUBSTITUTED PYRAZOLYL-BASED UREA DERIVATIVES AS VANILLOID RECEPTOR LIGANDS” (Medifron DBT Inc., priority 2011, dated 2013).

T1 sequence (Q8NER1 whole entry): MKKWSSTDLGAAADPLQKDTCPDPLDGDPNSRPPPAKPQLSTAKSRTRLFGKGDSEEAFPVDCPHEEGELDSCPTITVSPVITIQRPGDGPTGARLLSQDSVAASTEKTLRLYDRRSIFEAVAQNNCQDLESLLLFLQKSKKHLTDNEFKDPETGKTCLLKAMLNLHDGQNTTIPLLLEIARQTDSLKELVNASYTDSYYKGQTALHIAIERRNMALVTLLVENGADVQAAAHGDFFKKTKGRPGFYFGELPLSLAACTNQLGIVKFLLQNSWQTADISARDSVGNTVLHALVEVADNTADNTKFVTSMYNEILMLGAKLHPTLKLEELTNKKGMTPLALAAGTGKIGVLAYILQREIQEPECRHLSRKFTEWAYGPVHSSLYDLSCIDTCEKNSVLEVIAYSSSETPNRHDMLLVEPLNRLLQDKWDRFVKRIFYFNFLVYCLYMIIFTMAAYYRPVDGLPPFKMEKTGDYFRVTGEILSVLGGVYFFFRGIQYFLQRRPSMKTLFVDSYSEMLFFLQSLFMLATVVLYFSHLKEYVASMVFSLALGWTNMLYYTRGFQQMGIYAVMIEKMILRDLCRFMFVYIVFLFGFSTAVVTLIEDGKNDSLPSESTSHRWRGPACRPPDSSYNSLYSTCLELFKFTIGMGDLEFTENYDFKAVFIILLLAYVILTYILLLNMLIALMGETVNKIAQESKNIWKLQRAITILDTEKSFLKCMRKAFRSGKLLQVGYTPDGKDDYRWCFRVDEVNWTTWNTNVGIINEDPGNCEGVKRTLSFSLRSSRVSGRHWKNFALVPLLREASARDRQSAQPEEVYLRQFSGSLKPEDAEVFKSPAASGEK

One assay concerns the target T1, vanilloid receptor 1 (VR1/TRPV1 receptor) (Homo sapiens, UniProt Q8NER1).
T1 construct: expressed in transfected cells; host or cells: CHO K1 cells (ECACC), stably transfected
Put plainly: Functional testing on vanilloid receptor 1: FLIPR Ca2+ influx assay against capsaicin (Cap) in transfected CHO K1 cells (pharmacological method II). Type of assay: cell-based. Set-up: key to (f) Ki (human being) [nM] Cap: agonist classification: AG = agonist. The note with it: @ 5µM; human VR1 in CHO K1 cells; capsaicin; relative to maximum inhibition with 10 µM capsazepine; read-out: inhibition (as a percentage), printed in column (f) Ki (human being) [nM] Cap.
Description: […]
In the case of `CC(C)(C)c1cc(CNC(=O)Nc2ccc(C(CO)CO)c(F)c2)n(-c2cccc(Cl)c2)n1` [A152, 1-[[5-tert-Butyl-2-(3-chlorophenyl)-2H-pyrazol-3-yl]-methyl]-3-[3-fluoro-4-[2-hydroxy-1-(hydroxymethyl)-ethyl]-phenyl]-urea], the inhibition at 5 µM was found to be 39%.

On to `CC(CO)(CO)c1ccc(NC(=O)NCc2cc(C(F)(F)F)nn2-c2cccc(Cl)c2)cc1` [A155, 1-[[2-(3-Chlorophenyl)-5-(trifluoromethyl)-2H-pyrazol-3-yl]-methyl]-3-[4-[2-hydroxy-1-(hydroxymethyl)-1-methyl-ethyl]-phenyl]-urea], for which the inhibition at 5 µM is 26%.

Staying with this assay, now noted: human VR1 in CHO K1 cells; AG printed instead of a Ki.
Take `COc1c(F)cc(C(C)C(=O)NCc2cc(C(C)(C)C)nn2-c2ccc(F)c(Cl)c2)cc1F` (stereo not shown) [A5, N-[[5-tert-Butyl-2-(3-chloro-4-fluoro-phenyl)-2H-pyrazol-3-yl]-methyl]-2-(3,5-difluoro-4-methoxy-phenyl)-propionamide]: the “(f) Ki (human being) [nM] Cap: agonist classification” value (from here on “(f) Ki (human being) [nM] Cap”) was “AG”.

`CC(C(=O)NCc1cc(C(C)(C)C)nn1-c1cccc(Cl)c1)c1ccc(CCO)c(F)c1` (stereo not shown) [A139, N-[[5-tert-Butyl-2-(3-chlorophenyl)-2H-pyrazol-3-yl]-methyl]-2-[3-fluoro-4-(2-hydroxy-ethyl)-phenyl]-propionamide]: the “(f) Ki (human being) [nM] Cap” value was “AG”.

As to `CC(C(=O)NCc1cc(C(C)(C)C)nn1-c1cccc(Cl)c1)c1ccc(C(O)CO)cc1` (stereo not shown) [A147, N-[[5-tert-Butyl-2-(3-chlorophenyl)-2H-pyrazol-3-yl]-methyl]-2-[4-(1,2-dihydroxy-ethyl)-phenyl]-propionamide], the “(f) Ki (human being) [nM] Cap” value is “AG”.

The same assay, now with this note: read-out: (f) Ki (human being) [nM] Cap.
Regarding `CC(C)(C)c1cc(CNC(=O)Nc2ccc(CO)cc2)n(-c2cccc(Cl)c2)n1` [A27, 1-[[5-tert-Butyl-2-(3-chlorophenyl)-2H-pyrazol-3-yl]-methyl]-3-[4-(hydroxymethyl)-phenyl]-urea], the inhibition constant (Ki) is 1 nM.

As to `CC(C(=O)NCc1cc(C(F)(F)F)nn1-c1cccc(Cl)c1)c1ccc(C(O)CO)c(F)c1` (stereo not shown) [A148, N-[[2-(3-Chlorophenyl)-5-(trifluoromethyl)-2H-pyrazol-3-yl]-methyl]-2-[4-(1,2-dihydroxy-ethyl)-3-fluoro-phenyl]-propionamide], the inhibitory constant (Ki) came out at 4 nM.

Regarding `Cc1cccc(-n2nc(C(C)(C)C)cc2CNC(=O)Nc2ccc(CO)c(F)c2)c1` [A56, 1-[[5-tert-Butyl-2-(m-tolyl)-2H-pyrazol-3-yl]-methyl]-3-[3-fluoro-4-(hydroxymethyl)-phenyl]-urea], the Ki is 2 nM.

For `CC(C)(C)c1cc(CNC(=O)Nc2ccc(CO)c(F)c2)n(-c2ccc(F)c(F)c2)n1` [A57, 1-[[5-tert-Butyl-2-(3,4-difluoro-phenyl)-2H-pyrazol-3-yl]-methyl]-3-[3-fluoro-4-(hydroxymethyl)-phenyl]-urea], the inhibition constant Ki amounted to 2 nM.

`COc1cccc(-n2nc(C(F)(F)F)cc2CNC(=O)C(C)c2ccc(CO)c(F)c2)c1` (stereo not shown) [A43, 2-[3-Fluoro-4-(hydroxymethyl)-phenyl]-N-[[2-(3-methoxyphenyl)-5-(trifluoromethyl)-2H-pyrazol-3-yl]-methyl]-propionamide]: the inhibition constant Ki came to 21 nM.

Regarding `CC(C(=O)NCc1cc(C(C)(C)C)nn1-c1cccc(OC(F)(F)F)c1)c1ccc(COCCO)c(F)c1` (stereo not shown) [A125, N-[[5-tert-Butyl-2-[3-(trifluoromethyloxy)-phenyl]-2H-pyrazol-3-yl]-methyl]-2-[3-fluoro-4-(2-hydroxy-ethoxy-methyl)-phenyl]-propionamide], the Ki came to 15 nM.

Turning to `CC(C(=O)NCc1cc(C(F)(F)F)nn1-c1cccc(F)c1)c1ccc(CO)c(F)c1` (stereo not shown) [A38, 2-[3-Fluoro-4-(hydroxymethyl)-phenyl]-N-[[2-(3-fluorophenyl)-5-(trifluoromethyl)-2H-pyrazol-3-yl]-methyl]-propionamide], the inhibition constant Ki is 11 nM.

For the compound `CC(C(=O)NCc1cc(C(F)(F)F)nn1-c1ccc(F)c(F)c1)c1ccc(C2(O)CC2)c(F)c1` (stereo not shown) [A104, N-[[2-(3,4-Difluoro-phenyl)-5-(trifluoromethyl)-2H-pyrazol-3-yl]-methyl]-2-[3-fluoro-4-(1-hydroxy-cyclopropyl)-phenyl]-propionamide], the Ki was 12 nM.

For the compound `COc1c(F)cc(C(C)C(=O)NCc2cc(C3CC3)nn2-c2cccc(Cl)c2)cc1F` (stereo not shown) [A3, N-[[2-(3-Chlorophenyl)-5-cyclopropyl-2H-pyrazol-3-yl]-methyl]-2-(3,5-difluoro-4-methoxy-phenyl)-propionamide], the Ki is 6 nM.

As for `Cc1ccc(-n2nc(C(F)(F)F)cc2CNC(=O)Nc2ccc(CO)c(F)c2)cc1` [A71, 1-[3-Fluoro-4-(hydroxymethyl)-phenyl]-3-[[2-(p-tolyl)-5-(trifluoromethyl)-2H-pyrazol-3-yl]-methyl]-urea], the inhibitory constant (Ki) amounted to 42 nM.

`COCCOc1ccc(NC(=O)NCc2cc(C(F)(F)F)nn2-c2cccc(Cl)c2)cc1F` [A18, 1-[[2-(3-Chlorophenyl)-5-(trifluoromethyl)-2H-pyrazol-3-yl]-methyl]-3-[3-fluoro-4-(2-methoxy-ethoxy)-phenyl]-urea]: the Ki amounted to 68 nM.

Consider `O=C(NCc1cc(C(F)(F)F)nn1-c1cccc(Cl)c1)Nc1ccc(C(O)CO)c(F)c1` (stereo not shown) [A151, 1-[[2-(3-Chlorophenyl)-5-(trifluoromethyl)-2H-pyrazol-3-yl]-methyl]-3-[4-(1,2-dihydroxy-ethyl)-3-fluoro-phenyl]-urea], for which the inhibitory constant (Ki) was found to be 62 nM.

`O=C(NCc1cc(C(F)(F)F)nn1-c1ccccc1F)Nc1ccc(CO)c(F)c1` [A61, 1-[3-Fluoro-4-(hydroxymethyl)-phenyl]-3-[[2-(2-fluorophenyl)-5-(trifluoromethyl)-2H-pyrazol-3-yl]-methyl]-urea]: the Ki turned out to be 26 nM.

On to `CC(C)(C)c1cc(CNC(=O)Nc2ccc(CO)c(Cl)c2)n(-c2cccc(Cl)c2)n1` [A96, 1-[[5-tert-Butyl-2-(3-chlorophenyl)-2H-pyrazol-3-yl]-methyl]-3-[3-chloro-4-(hydroxymethyl)-phenyl]-urea], for which the inhibition constant (Ki) stood at 2 nM.

On to `CC(C(=O)NCc1cc(C(F)(F)F)nn1-c1cccc(Cl)c1)c1ccc(C2(O)CC2)c(F)c1` (stereo not shown) [A101, N-[[2-(3-Chlorophenyl)-5-(trifluoromethyl)-2H-pyrazol-3-yl]-methyl]-2-[3-fluoro-4-(1-hydroxy-cyclopropyl)-phenyl]-propionamide], for which the Ki came to 4 nM.

Regarding `O=C(Cc1ccc(CO)c(F)c1)NCc1cc(C(F)(F)F)nn1-c1cccc(Cl)c1` [A30, N-[[2-(3-Chlorophenyl)-5-(trifluoromethyl)-2H-pyrazol-3-yl]-methyl]-2-[3-fluoro-4-(hydroxymethyl)-phenyl]-acetamide], the Ki was determined as 21 nM.

`CC(C(=O)NCc1cc(C(F)(F)F)nn1-c1ccc(F)c(F)c1)c1ccc(CO)c(F)c1` (stereo not shown) [A40, N-[[2-(3,4-Difluoro-phenyl)-5-(trifluoromethyl)-2H-pyrazol-3-yl]-methyl]-2-[3-fluoro-4-(hydroxymethyl)-phenyl]-propionamide]: the inhibitory constant (Ki) worked out at 27 nM.

As for `CC(C)(C)c1cc(CNC(=O)Nc2ccc(C3(O)COC3)cc2)n(-c2cccc(Cl)c2)n1` [A107, 1-[[5-tert-Butyl-2-(3-chlorophenyl)-2H-pyrazol-3-yl]-methyl]-3-[4-(3-hydroxy-oxetan-3-yl)-phenyl]-urea], the inhibition constant Ki came to 45 nM.

`CC(C(=O)NCc1cc(C(F)(F)F)nn1-c1cccc(F)c1)c1ccc(COCCO)c(F)c1` (stereo not shown) [A122, 2-[3-Fluoro-4-(2-hydroxy-ethoxy-methyl)-phenyl]-N-[[2-(3-fluorophenyl)-5-(trifluoromethyl)-2H-pyrazol-3-yl]-methyl]-propionamide]: the Ki was 45 nM.

`CC(C)(C)c1cc(CNC(=O)Nc2ccc(CO)c(F)c2)n(-c2cccc(Cl)c2)n1` [A55, 1-[[5-tert-Butyl-2-(3-chlorophenyl)-2H-pyrazol-3-yl]-methyl]-3-[3-fluoro-4-(hydroxymethyl)-phenyl]-urea]: the inhibition constant (Ki) turned out to be 3 nM.

Consider `C[C@@H](C(=O)NCc1cc(C(F)(F)F)nn1-c1cccc(Cl)c1)c1ccc(COCCO)c(F)c1` [A120, (2R)-N-[[2-(3-Chlorophenyl)-5-(trifluoromethyl)-2H-pyrazol-3-yl]-methyl]-2-[3-fluoro-4-(2-hydroxy-ethoxy-methyl)-phenyl]-propionamide], for which the Ki was 5 nM.

For the compound `CC(C(=O)NCc1cc(C(C)(C)C)nn1-c1cccc(Cl)c1)c1ccc(C2(O)CC2)c(F)c1` (stereo not shown) [A100, N-[[5-tert-Butyl-2-(3-chlorophenyl)-2H-pyrazol-3-yl]-methyl]-2-[3-fluoro-4-(1-hydroxy-cyclopropyl)-phenyl]-propionamide], the Ki stood at 0.7 nM.

`O=C(NCc1cc(C(F)(F)F)nn1-c1cccc(Cl)c1)Nc1ccc(CO)c(Cl)c1` [A97, 1-[3-Chloro-4-(hydroxymethyl)-phenyl]-3-[[2-(3-chlorophenyl)-5-(trifluoromethyl)-2H-pyrazol-3-yl]-methyl]-urea]: the inhibitory constant (Ki) stood at 11 nM.

Turning to `Cc1cc(-n2nc(C(F)(F)F)cc2CNC(=O)Nc2ccc(CO)c(F)c2)ccc1C#N` [A81, 1-[[2-(4-Cyano-3-methyl-phenyl)-5-(trifluoromethyl)-2H-pyrazol-3-yl]-methyl]-3-[3-fluoro-4-(hydroxymethyl)-phenyl]-urea], the Ki was determined as 21 nM.

`O=C(NCc1cc(C(F)(F)F)nn1-c1cccc(F)c1)Nc1ccc(COCCO)c(F)c1` [A131, 1-[3-Fluoro-4-(2-hydroxy-ethoxy-methyl)-phenyl]-3-[[2-(3-fluorophenyl)-5-(trifluoromethyl)-2H-pyrazol-3-yl]-methyl]-urea]: the inhibition constant Ki is 56 nM.

Take `O=C(NCc1cc(C(F)(F)F)nn1-c1ccc(F)c(F)c1)Nc1ccc(CO)c(F)c1` [A64, 1-[[2-(3,4-Difluoro-phenyl)-5-(trifluoromethyl)-2H-pyrazol-3-yl]-methyl]-3-[3-fluoro-4-(hydroxymethyl)-phenyl]-urea]: the Ki was found to be 26 nM.

The term inhibition denotes the percentage by which the read-out fell short of the control. By Ki is commonly meant the dissociation constant of the complex between target and ligand, obtained from inhibition or displacement.
